According to patent US20240165078A1, “THERAPEUTIC TARGETING OF RECEPTOR TYROSINE KINASE INHIBITOR-INDUCED ANDROGEN RECEPTOR PHOSPHORYLATION IN CANCER” (Indiana University Research and Technology Corporation, priority 2018, published 2024):
pIC50: −log10 of the molar value. Where a SMILES comes first, the peptide text is derived from it. The star is where a group is joined. Cbz = O=C(OCc1ccccc1)*

Assays:
[1] = test system: 786-0R cells; experiment: Ki67 immunofluorescence staining; assay type: cell-based, human; details: in the presence of sunitinib and enzalutamide
Experimental: (§1) AR expression was also assessed in other RCC cell lines (FIG. 1E).

[2] = test system: KLK2; experiment: Human KLK2 ELISA, serum of 786-0 tumor bearing mice; assay type: in vivo; details: 786-0 model, end-point
[3] = test system: KLK2; experiment: Human KLK2 ELISA, tissue culture supernatant; assay type: cell-based; details: in vitro, RCC cell lines
[4] = test system: AR+ RCC cell lines (786-0R, UMRC2, Caki2); experiment: Crystal violet cell viability assay, AR+ RCC cell lines; assay type: cell-based, human
Experimental: as §1

[5] = target: T1, androgen receptor (Homo sapiens, UniProt P10275); experiment: AR expression by immunofluorescence in UMRC2siSPOP cells; assay type: cell-based; details: UMRC2siSPOP compared to UMRC2, in the presence of sunitinib
T1 construct: Baseline AR expression was high in 786-0R and UMRC2 cells; host or cells: 786-0, 786-0R, UMRC2
T1 sequence (P10275 1-920): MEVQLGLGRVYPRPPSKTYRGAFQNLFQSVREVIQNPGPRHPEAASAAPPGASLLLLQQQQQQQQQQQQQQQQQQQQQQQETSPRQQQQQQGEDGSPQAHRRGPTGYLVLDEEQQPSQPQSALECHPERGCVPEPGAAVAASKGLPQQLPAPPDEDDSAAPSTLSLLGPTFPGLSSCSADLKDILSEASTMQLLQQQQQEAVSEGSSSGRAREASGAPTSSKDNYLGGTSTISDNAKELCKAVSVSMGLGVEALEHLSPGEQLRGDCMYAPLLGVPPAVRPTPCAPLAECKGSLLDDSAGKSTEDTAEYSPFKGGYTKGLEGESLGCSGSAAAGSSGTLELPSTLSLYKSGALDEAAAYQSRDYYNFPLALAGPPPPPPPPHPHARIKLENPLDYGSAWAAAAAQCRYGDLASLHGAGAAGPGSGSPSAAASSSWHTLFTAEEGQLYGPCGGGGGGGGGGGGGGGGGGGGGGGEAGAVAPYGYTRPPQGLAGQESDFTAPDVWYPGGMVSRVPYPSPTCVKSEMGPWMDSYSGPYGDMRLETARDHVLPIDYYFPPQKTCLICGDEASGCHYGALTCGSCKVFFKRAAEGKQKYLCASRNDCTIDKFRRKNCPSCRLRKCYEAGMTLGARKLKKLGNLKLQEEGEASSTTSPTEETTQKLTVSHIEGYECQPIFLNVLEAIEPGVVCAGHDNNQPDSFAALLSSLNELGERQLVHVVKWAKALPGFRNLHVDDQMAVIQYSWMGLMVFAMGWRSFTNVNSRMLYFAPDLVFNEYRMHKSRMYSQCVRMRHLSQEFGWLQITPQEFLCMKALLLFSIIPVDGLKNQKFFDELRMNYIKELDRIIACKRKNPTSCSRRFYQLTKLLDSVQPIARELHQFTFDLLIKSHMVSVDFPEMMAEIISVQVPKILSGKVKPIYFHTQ

[6] = test system: KLK2; experiment: KLK2 serum level in RCC PDX models RP-R-02 and RP-R-02LM; assay type: in vivo, human; details: sunitinib acquired (RP-R-02) and intrinsic (RP-R-02LM) resistance models
[7] = test system: CDK1; experiment: Western blot for CDK1 in RP-R-02LM tumors treated in vivo; details: RP-R-02LM intrinsically sunitinib-resistant tumors
Excerpt: Cells were maintained and cultured in the appropriate media, supplemented with 10% FBS and 1% penicillin and streptomycin. All cells are routinely tested and checked for the absence of mycoplasma. […] Crystal violet assay (Sigma) was used to evaluate cells growth after different time point-treatment, and absorbance was read using a spectrometer (xMarks Spectrometer, Bio-Rad). […] Six-week-old homozygous ICR, Severe Combined Immune-deficient (SCID) female mice were housed in a sterile, pathogen-free facility and maintained in a temperature controlled room, under a 12-hour light/dark schedule with water and food ad libitum. […] All mice were operated under sedation with oxygen, isoflurane and buprenorphine. When tumors were established, and reached 50 mm^2, mice were randomly grouped and placed in either control group or treatment groups (n=5-10). […] Tumor burden was assessed once a week by caliper measurement of two diameters of the tumor (L×W=mm^2) and reported as tumor volume ((L×W2)/2=mm^3). Body weights were assessed using a weighing scale and recorded in grams. Endpoint tumor weights were assessed using a weigh scale and recorded in grams. […]
Whole cell protein extracts from tissue and cell were denatured, separated on SDS-PAGE gels and transferred to nitrocellulose membranes. […] Quantitative measurements of Western blot analysis were performed using ImageJ and Graph-Pad software (Prism 7).

[8] = test system: 786-OAR cells; experiment: Sunitinib dose-response proliferation assay, AR-overexpressing cells; assay type: cell-based; details: Homo sapiens; 786-OAR (786-0 overexpressing ARwt)
Experimental: as §1

[9] = test system: LNCaP cells; experiment: LNCaP cell phenotype and drug activity; assay type: cell-based; details: sunitinib-exposed LNCaP cells
[10] = target: T1, androgen receptor; experiment: AR expression by immunofluorescence in RCC cells (sunitinib, enzalutamide, combination, ±MG132); assay type: cell-based; details: 786-0R and UMRC2 cells
[11] = test system: 786-0 tumors; experiment: 786-0 RCC tumor model in mice; assay type: in vivo
[12] = test system: KLK2; experiment: KLK2 ELISA in plasma of kidney cancer patients; assay type: in vivo, human; details: kidney cancer patients treated with sunitinib
[13] = test system: AR targeted genes (KLK2, KLK4, ZBTB16, MYC); experiment: q-PCR of AR targeted genes after sunitinib; assay type: cell-based, human; details: 786-0R and UMRC2 cells, sunitinib treatment
Experimental: RNA was extracted in accordance with manufacturer's protocol (miRNeasy; Qiagen), and RNA sequencing was performed as previously described (25). In brief, RNA illumine sequencing reads were de-multiplex, aligned against human genome (hg19), and results aligned to BAM formatted sequence alignment map via cufflinks program. Differential expressed transcripts were identified between 786-0 and 786-0R samples, and ranked based on the square root of the sum of squares for the log 2 fold change. For qRT-PCR analysis, gene expression assessment on AR target genes was performed using the Prime PCR array (Bio-Rad) according to manufacturer's protocol. AR primer used is forward primer; 5-[…]-3 (SEQ ID NO:1) and reverse primer; 5-[…]-3 (SEQ ID NO:2). In brief, the denaturation step was carried out at 95° C. for 10 seconds; the annealing step was carried out at 58° C. for 30 seconds, and extension step at 72° C. for 1 minute using the applied Biosystems 7900HT fast real-time PCR system (Applied Biosystems). Sequence Detection Systems Software v2.3 was used to identify cycle threshold (Ct) values and generate gene expression curves. All data were normalized to either GAPDH expression.
Gene expression of AR targeted genes was then examined in the presence or absence of sunitinib treatment.

[14] = test system: 786-0 cells; experiment: Sunitinib dose-response proliferation assay; assay type: cell-based; details: Homo sapiens
Experimental: as §1

Row | AR expression [5] | pIC50 [8] | AR expression [10] | pIC50 [14] | IC50 for sunitinib by AR status ([4]; AR+ lines (786-0R, UMRC2, Caki2) compared to AR- lines (786-0, ACHN)) | SMILES | cell proliferation (Ki67 staining) [1] | circulating KLK2 levels [2] | KLK2 in tissue culture supernatant [3] | cell viability, single agent ([4]; AR+ 786-0R cells) | KLK2 in serum [6] | CDK1 protein expression [7] | activity of enzalutamide [9] | angiogenesis (CD31 staining) ([11]; 786-0 tumors) | proliferation in vivo (Ki67 staining) ([11]; 786-0 tumors) | time when tumors became resistant to sunitinib (≥50% increase volume from nadir) ([11]; second experiment, sunitinib 40 mg/kg) [days] | KLK2 in plasma [12] | increased gene expression of KLK2, KLK4, ZBTB16 and MYC [13]
1 | – | – | – | – | – | CC(C)C[C@@H](C=O)NC(=O)[C@H](CC(C)C)NC(=O)[C@H](CC(C)C)NC(=O)OCc1ccccc1 [MG132] (Cbz-Leu-Leu-Leu-aldehyde) | restoration of cell proliferation | – | – | – | – | – | – | – | – | – | – | –
2 | – | – | – | – | – | CNC(=O)c1ccc(N2C(=S)N(c3ccc(C#N)c(C(F)(F)F)c3)C(=O)C2(C)C)cc1F [enzalutamide, 4-(3-(4-cyano-3-(trifluoromethyl)phenyl)-5,5-dimethyl-4-oxo-2-thioxoimidazolidin-1-yl)-2-fluoro-N-methylbenzamide] | – | decreased | modulated | did not have a significant effect | – | – | – | – | – | – | – | –
3 | significant increased AR expression | 4.91 | increased | 5.28 | higher IC50 | CCN(CC)CCNC(=O)c1c(C)[nH]c(/C=C2\C(=O)Nc3ccc(F)cc32)c1C [sunitinib, N-(2-Diethylaminoethyl)-5-[(Z)-(5-fluoro-2-oxo-1H-indol-3-ylidene)methyl]-2,4-dimethyl-1H-pyrrole-3-carboxamide] | – | – | increased KLK2 | – | increased | increased CDK1 protein expression | increased the activity of enzalutamide | inhibition of angiogenesis | continued to proliferate | 45 | increase of KLK2 | 2-100 fold
